Consider 20 compounds from US8344010B2, “Fused imidazole derivatives as TRPV3 antagonist” (Glenmark Pharmaceuticals S.A., priority 2008, dated 2013).

The assay concerns the target T1, Human TRPV3 (Homo sapiens, UniProt Q8NET8).
T1 construct: expressed in transfected cells; host or cells: CHO cells (selected with G-418)
T1 sequence (Q8NET8 1-790): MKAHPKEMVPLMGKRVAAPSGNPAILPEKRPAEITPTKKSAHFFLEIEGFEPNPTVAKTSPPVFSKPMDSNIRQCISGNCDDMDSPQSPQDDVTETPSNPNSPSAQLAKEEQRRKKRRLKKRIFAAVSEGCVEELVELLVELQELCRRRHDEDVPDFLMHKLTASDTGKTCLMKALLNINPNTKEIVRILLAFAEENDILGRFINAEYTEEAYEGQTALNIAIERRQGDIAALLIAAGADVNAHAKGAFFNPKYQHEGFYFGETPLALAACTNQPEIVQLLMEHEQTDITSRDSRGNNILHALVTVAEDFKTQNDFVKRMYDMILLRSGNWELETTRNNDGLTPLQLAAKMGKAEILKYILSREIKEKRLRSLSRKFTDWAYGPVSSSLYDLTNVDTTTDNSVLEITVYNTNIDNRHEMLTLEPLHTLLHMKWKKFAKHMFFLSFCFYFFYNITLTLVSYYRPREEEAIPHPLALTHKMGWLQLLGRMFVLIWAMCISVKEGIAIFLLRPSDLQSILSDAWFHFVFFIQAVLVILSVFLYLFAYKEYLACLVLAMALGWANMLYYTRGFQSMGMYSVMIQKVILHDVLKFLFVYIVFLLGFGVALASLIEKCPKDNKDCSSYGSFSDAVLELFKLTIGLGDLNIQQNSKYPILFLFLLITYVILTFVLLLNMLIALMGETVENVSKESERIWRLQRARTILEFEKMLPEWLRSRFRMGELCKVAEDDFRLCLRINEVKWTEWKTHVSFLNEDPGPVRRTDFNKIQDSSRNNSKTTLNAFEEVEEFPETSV
The assay is described as follows: 45Calcium uptake assay: inhibition of 2-APB induced cellular uptake of radioactive calcium. In kind it is cell-based. To be noted: human TRPV3 expressing CHO cells, 2-APB 500 μM; for inhibition at 1 µM: 1 μM test compound, read-out: Percentage Inhibition (1 μM); for inhibition at 10 µM: 10 μM test compound, read-out: Percentage Inhibition (10 μM); for pIC50: class symbol. An excerpt:
The illustrative examples of the present invention are screened for TRPV3 activity according to a modified procedure described in Tóth, A., Kedei, N., Wang, Y. and Blumberg, P. M. Life Sciences (2003), 73, 487-498. The screening of the compounds can be carried out by other methods and procedures known to a person skilled in the art. Such screening methods may be found in (a) Hu, H.-Z. et al. J. Biol. Chem. (2004), 279, 35741-35747; (b) Smith, G. D. et al. Nature (2002), 418, 186-190; (c) Peier, A. M. et al. Science (2002), 296, 2046-2049.
Screening for TRPV3 antagonist using the ^45Calcium uptake assay The inhibition of TRPV3 receptor activation was followed as inhibition of 2-aminoethoxydiphenylborate (2-APB) induced cellular uptake of radioactive calcium. Test compounds were dissolved in dimethyl sulfoxide (DMSO) to prepare 20 mM stock solution and then diluted using plain medium with DMEM/F-12 containing 1.8 mM CaCl2 to get desired concentration. Final concentration of DMSO in the reaction was 0.5% (v/v). Human TRPV3 expressing CHO cells were grown in DMEM/F-12 medium with 10% FBS, 1% penicillin-streptomycin solution, 400 μg/ml of G-418. Cells were seeded 24 h prior to the assay in 96 well plates so as to get ˜50,000 cells per well on the day of experiment. Cells were treated with test compounds for 10 minutes followed by addition of 2-APB at a final concentration of 500 μM and 5 μCi/ml^45Ca^+2 for 4 minutes. Cells were washed and lysed using buffer containing 1% Triton X-100, 0.1% deoxycholate and 0.1% SDS. Radioactivity in the lysate was measured in Packardt Top count after addition of liquid scintillant. Concentration response curves were plotted as a % of maximal response obtained in the absence of test antagonist. IC50 value was calculated from concentration response curve by nonlinear regression analysis using GraphPad PRISM software.
Percentage inhibition at concentrations of 1.0 μM and 10.0 μM are given in the table along with IC50 details for selected examples.

pIC50: −log10 of the molar value.

Consider `CCCCCOc1c(/C=C/c2nc3cc(Cl)cnc3n2-c2ccc(C#N)cn2)cccc1OC(F)F` [Example 101, 6-(6-Chloro-2-{(E)-2-[3-(difluoromethoxy)-2-pentyloxyphenyl]vinyl}-3H-imidazo[4,5-b]pyridin-3-yl)nicotinonitrile], for which the inhibition – broadly, the change of the read-out against control, counted positive when it falls – at 1 µM is 30.3% and the inhibition at 10 µM came to 85.2%.

In the case of `N#Cc1ccc(-n2c(/C=C/c3cccc(OC(F)F)c3OCC3CCC3)nc3cccnc32)nc1` [Example 97, 6-(2-{(E)-2-[2-(Cyclobutylmethoxy)-3-difluoromethoxyphenyl]vinyl}-3H-imidazo[4,5-b]pyridin-3-yl)nicotinonitrile], the inhibition at 1 µM stood at 96%; the inhibition at 10 µM was 99.2%; the pIC50 (usually the negative decadic logarithm of the IC50, by convention in mol/L) is 7.00 to 7.30.

For `CCCCCOc1c(/C=C/c2nc3cccnc3n2-c2ccc(C#N)cn2)cccc1OC` [Example 87, 6-{2-[(E)-2-(2-Pentyloxy-3-methoxyphenyl)vinyl]-3H-imidazo[4,5-b]pyridin-3-yl}nicotinonitrile], the inhibition at 1 µM worked out at 95.7%, the inhibition at 10 µM amounted to 99.1% and the pIC50 was 6.30 to 7.00.

For the compound `COc1ccc2c(c1)nc(/C=C/c1cccc(OC)c1OC1CCCC1)n2-c1ccc(C#N)cn1` [Example 56, 6-{2-[(E)-2-(2-[Cyclopentyloxy]-3-methoxyphenyl)vinyl]-5-methoxy-1H-benzimidazol-1-yl}nicotinonitrile], the inhibition at 1 µM was 96.8%, the inhibition at 10 µM came out at 98.9% and the pIC50 was 6.30 to 7.00.

`COc1cccc(/C=C/c2nc3ccc[n+]([O-])c3n2-c2ccc(C#N)cn2)c1OC1CCCC1` [Example 92, 6 (2-{(E)-2-[2-(cyclopentyloxy)-3-methoxyphenyl]ethenyl}-4-oxido-3H-imidazo[4,5-b]pyridin-3-yl)pyridine-3-carbonitrile]: the inhibition at 1 µM was 3.02% and the inhibition at 10 µM worked out at 24.5%.

Take `COc1cccc(/C=C/c2nc3ccccc3n2-c2ccc(C(F)(F)F)cn2)c1OC1CCCC1` [Example 27, 2-[(E)-2-(2-Cyclopentyloxy-3-methoxyphenyl)vinyl]-1-[5-(trifluoromethyl)pyridin-2-yl]-1H-benzimidazole]: the inhibition at 1 µM is 41.8% and the inhibition at 10 µM amounted to 94.7%.

`COc1cccc(/C=C/c2nc3cc(OC(F)F)ccc3n2-c2ccc(C#N)cn2)c1OC1CCCC1` [Example 59, 6-{2-[(E)-2-(2-[Cyclopentyloxy]-3-methoxyphenyl)vinyl]-5-(difluoromethoxy)-1H-benzimidazol-1-yl}nicotinonitrile]: the inhibition at 1 µM came out at 95.8%, the inhibition at 10 µM was determined as 97.9% and the pIC50 is 7.00 to 7.30.

Regarding `COc1cccc(/C=C/c2nc3cc(F)c(F)cc3n2-c2ccc(C#N)cn2)c1OCC1CCC1` [Example 67], the inhibition at 1 µM was found to be 95.5%, the inhibition at 10 µM stood at 99% and the pIC50 was over 7.30.

As to `COc1cccc(/C=C/c2nc3ccccc3n2Cc2ccc(C#N)cc2)c1OCc1ccccc1F` [Example 44, 4-({2-[(E)-2-(2-{2-Fluorobenzyloxy}-3-methoxyphenyl)vinyl]-1H-benzimidazol-1-yl}methyl)benzonitrile], the inhibition at 1 µM came to 60% and the inhibition at 10 µM is 87.1%.

As for `CCCCOc1c(/C=C/c2nc3ccccc3n2-c2ccc(C#N)cn2)cccc1OC` [Example 8, 6-{2-[(E)-2-(2-Butoxy-3-methoxyphenyl)vinyl]-1H-benzimidazol-1-yl}nicotinonitrile], the inhibition at 1 µM was 91.6%, the inhibition at 10 µM stood at 97% and the pIC50 is 6.30 to 7.00.

As to `COc1cccc(/C=C/c2nc3ccccc3n2-c2cccs2)c1OCC1CC1` [Example 45, 2-[(E)-2-(2-Cylopropymethoxy-3-methoxyphenyl)]-1-(2-thienyl)-1H-benzimidazole], the inhibition at 1 µM amounted to 43.4% and the inhibition at 10 µM is 83.8%.

Take `COc1cccc(/C=C/c2nc3cc(Cl)c(Cl)cc3n2-c2ccc(C#N)cn2)c1OC1CCCC1` [Example 72, 6-{5,6-Dichloro-2-[(E)-2-(2-cyclopentyloxy-3-methoxyphenyl)vinyl]-1H-benzimidazol-1-yl}nicotinonitrile]: the inhibition at 1 µM is 90.8%, the inhibition at 10 µM turned out to be 95.5% and the pIC50 was 6.30 to 7.00.

For the compound `COC(=O)c1ccc(-n2c(/C=C/c3cccc(OC)c3OC3CCCC3)nc3ccccc32)nc1` [Example 30, Methyl 6-(2-{(E)-2-[2-(Cyclopentyloxy)-3-methoxyphenyl]vinyl}-1H-benzimidazol-1-yl)nicotinate], the inhibition at 1 µM was 16.4% and the inhibition at 10 µM was determined as 27.5%.

In the case of `COc1cccc(/C=C/c2nc3ccccc3n2-c2ccc(C(F)(F)F)cn2)c1OCc1ccccc1` [Example 28, 2-[(E)-2-(2-Benzyloxy-3-methoxyphenyl)vinyl]-1-[5-(trifluoromethyl)pyridin-2-yl]-1H-benzimidazole], the inhibition at 1 µM turned out to be 77.1%, the inhibition at 10 µM was found to be 92.6% and the pIC50 was 6.30 to 7.00.

Regarding `COc1cccc(/C=C/c2nc3ccccc3n2-c2ccc(C#N)cn2)c1OCC1CC1` [Example 12, 6-{2-[(E)-2-(2-[Cyclopropylmethoxy]-3-methoxyphenyl)vinyl]-1H-benzimidazol-1-yl}nicotinonitrile], the inhibition at 1 µM turned out to be 81.4%, the inhibition at 10 µM is 97.7% and the pIC50 is 6.30 to 7.00.

`COc1cccc(/C=C/c2nc3cccnc3n2-c2ccc(C#N)cn2)c1OC1CCCC1` [Example 91, 6-{2-[(E)-2-(2-[Cyclopentyloxy]-3-methoxyphenyl)vinyl]-3H-imidazo[4,5-b]pyridin-3-yl}nicotinonitrile]: the inhibition at 1 µM is 95.3%, the inhibition at 10 µM came to 99.7% and the negative-log IC50 (pIC50) is 6.30 to 7.00.

Turning to `CCC(CC)Oc1c(/C=C/c2nc3ccccc3n2-c2ccc(C#N)cn2)cccc1OC` [Example 10, 6-{2-[(E)-2-(2-(1-Ethylpropoxy)-3-methoxyphenyl)vinyl]-1H-benzimidazol-1-yl}nicotinonitrile], the inhibition at 1 µM came out at 96.6%, the inhibition at 10 µM amounted to 99.1% and the pIC50 was 6.30 to 7.00.

Regarding `FC(F)Oc1cccc(/C=C/c2nc3cccnc3n2-c2ccc(OC(F)(F)F)cc2)c1OCC1CCC1` [Example 100, 2-{(E)-2-[2-Cylobutylmethoxy-3-(difluoromethoxy)phenyl]vinyl}-3-[4-(trifluoromethoxy)phenyl]-3H-imidazo[4,5-b]pyridine], the inhibition at 1 µM came to 66.3% and the inhibition at 10 µM was found to be 94.9%.

With `COc1cccc(/C=C/c2nc3ccccc3n2-c2ccc(C#N)cc2)c1OCC1CC1` [Example 33, 4-{2-[(E)-2-(2-Cyclopropylmethoxy-3-methoxyphenyl)vinyl]-1H-benzimidazol-1-yl}benzonitrile], the inhibition at 1 µM stood at 78.2%, the inhibition at 10 µM was found to be 95.3% and the pIC50 was 6.30 to 7.00.

With `COc1cccc(/C=C/c2nc3ccccc3n2-c2nc(C)c(C#N)s2)c1OC1CCCC1` [Example 49, 2-{2-[(E)-2-(2-Cyclopentyloxy-3-methoxyphenyl)vinyl]-1H-benzimidazol-1-yl}-4-methyl-1,3-thiazole-5-carbonitrile], the inhibition at 1 µM came out at 56.1% and the inhibition at 10 µM is 76.9%.
